Measured values taken from patent publication US8906946B2, “TRPM8 receptor antagonists” (Dompe' S.p.A., priority 2011, dated 2014).

Assays:
[1] = system: rhythmic bladder contractions; assay: Isovolumetric bladder model, intravenous protocol; type: in vivo, rat; details: 10 mg/kg i.v., anesthetized female rats
Procedure: (§1) Female rats were anesthetized with urethane. Ureters were ligated and sectioned. A catheter was inserted through the urinary meatus into the bladder before urethral ligature. Two protocols for testing compounds were used: intravenous (i.v.) or intravesical (i.ves.) administration.
In the first protocol, the bladder was filled by step of 100 μL of saline every 5 min until the occurrence of rhythmic bladder contractions (RBC). After a 30 min control period, compound (1) dissolved in solutol/NMP solution (2:1 w/w) at a dosage of 10 mg/kg, or vehicle were administered i.v (1 ml in 5 min) […] and the resulting effect was followed for 60 min. For each group, Micturition Frequency (MF) and Amplitude of Micturition (AM) were measured during the control and treatment periods.

[2] = system: rhythmic bladder contractions; assay: Isovolumetric bladder model, intravesical protocol; type: in vivo, rat
Procedure: as §1
In the second protocol, the bladder was filled first 3 times every 5 min with 100 μL of a solution of solutol/NMP […] containing 0.756 mg of compound (1) or with 100 μL of vehicle, then with 100 μL of saline every 5 min until the occurrence of RBC. A maximal volume of 3 mL was infused. The threshold volume inducing RBC in each group was compared. […] Furthermore, the threshold volume (TV) in the group treated with compound (1) reached 3 mL without RBC occurrence whereas, in the vehicle group, RBC occurred in all rats with a mean volume of 0.7±0.09 ml.

hTRPV1 channels = target: T1, hTRPV1 channels (Homo sapiens, UniProt Q8NER1); assay: Selectivity analysis, calcium influx assay, hTRPV1 in HEK293 cells; type: cell-based
T1 construct: expressed in transfected cells; host or cells: HEK293
Procedure: The objective of this study was to evaluate the effects in vitro of compound 1 on 3 cloned human channels expressed in HEK293 or CHO cells using the Fluo-8 calcium kit (AAT Bioquest, Inc.), and a Fluorescence Imaging Plate Reader (FLIPR^TETRA™) instrument. The following 3 cloned human channels were evaluated in this study. • 1. Cloned hTRPM8 channels (encoded by the human TRPM8 gene, stably expressed in CHO cells), • 2. Cloned hTRPV1 channels (encoded by the human TRPV1 gene, stably expressed in HEK293 cells), • 3. Cloned hTRPV4 channels (encoded by the human TRPV4 gene, stably expressed in CHO cells).
The effects of […] (0.001, 0.01, 1, and 10 μM) of compound (1) were evaluated on these three TRP channels (n>3) using the following experimental procedure for each channel tested:
The ability of compound (1) to act as an antagonist of TRPV1 was evaluated with a calcium influx assay. The signal elicited in the presence of the positive control agonist (0.1 μM capsaicin) was set to 100% and the signal in the presence of the antagonist (5 μM ruthenium red) was set to 0.

hepatocytes = assay: Metabolic stability hepatocytes, rat; type: in vitro ADME
CYP2C19 = CYP2C19 (Homo sapiens, UniProt P33261); assay: CYP inhibition 2C19; type: in vitro ADME; details: 2C19, 10 μM
hERG = hERG (Homo sapiens, UniProt Q12809); assay: hERG binding
Plasma stability, human = type: in vitro ADME
[3] = Plasma Protein Binding, human; type: in vitro ADME
human TRPM8 = human TRPM8 (Homo sapiens, UniProt Q7Z2W7); assay: Selectivity analysis, calcium influx assay (Fluo-8, FLIPR TETRA), hTRPM8 in CHO cells; type: cell-based; parameters: expressed in transfected cells; host or cells: CHO
Procedure: The following 3 cloned human channels were evaluated in this study. • 1. Cloned hTRPM8 channels (encoded by the human TRPM8 gene, stably expressed in CHO cells), • 2. Cloned hTRPV1 channels (encoded by the human TRPV1 gene, stably expressed in HEK293 cells), • 3. Cloned hTRPV4 channels (encoded by the human TRPV4 gene, stably expressed in CHO cells). […] The ability of compound (1) to act as an antagonist of TRPM8 was evaluated with a calcium influx assay. […] Values were considered significant and highlighted in yellow if the test article mean was three or more standard deviations away from the positive control agonist mean.

[4] = CHO, read-out: normalized % inhibition TRPM8

Sequence of human TRPM8 (Q7Z2W7 whole entry): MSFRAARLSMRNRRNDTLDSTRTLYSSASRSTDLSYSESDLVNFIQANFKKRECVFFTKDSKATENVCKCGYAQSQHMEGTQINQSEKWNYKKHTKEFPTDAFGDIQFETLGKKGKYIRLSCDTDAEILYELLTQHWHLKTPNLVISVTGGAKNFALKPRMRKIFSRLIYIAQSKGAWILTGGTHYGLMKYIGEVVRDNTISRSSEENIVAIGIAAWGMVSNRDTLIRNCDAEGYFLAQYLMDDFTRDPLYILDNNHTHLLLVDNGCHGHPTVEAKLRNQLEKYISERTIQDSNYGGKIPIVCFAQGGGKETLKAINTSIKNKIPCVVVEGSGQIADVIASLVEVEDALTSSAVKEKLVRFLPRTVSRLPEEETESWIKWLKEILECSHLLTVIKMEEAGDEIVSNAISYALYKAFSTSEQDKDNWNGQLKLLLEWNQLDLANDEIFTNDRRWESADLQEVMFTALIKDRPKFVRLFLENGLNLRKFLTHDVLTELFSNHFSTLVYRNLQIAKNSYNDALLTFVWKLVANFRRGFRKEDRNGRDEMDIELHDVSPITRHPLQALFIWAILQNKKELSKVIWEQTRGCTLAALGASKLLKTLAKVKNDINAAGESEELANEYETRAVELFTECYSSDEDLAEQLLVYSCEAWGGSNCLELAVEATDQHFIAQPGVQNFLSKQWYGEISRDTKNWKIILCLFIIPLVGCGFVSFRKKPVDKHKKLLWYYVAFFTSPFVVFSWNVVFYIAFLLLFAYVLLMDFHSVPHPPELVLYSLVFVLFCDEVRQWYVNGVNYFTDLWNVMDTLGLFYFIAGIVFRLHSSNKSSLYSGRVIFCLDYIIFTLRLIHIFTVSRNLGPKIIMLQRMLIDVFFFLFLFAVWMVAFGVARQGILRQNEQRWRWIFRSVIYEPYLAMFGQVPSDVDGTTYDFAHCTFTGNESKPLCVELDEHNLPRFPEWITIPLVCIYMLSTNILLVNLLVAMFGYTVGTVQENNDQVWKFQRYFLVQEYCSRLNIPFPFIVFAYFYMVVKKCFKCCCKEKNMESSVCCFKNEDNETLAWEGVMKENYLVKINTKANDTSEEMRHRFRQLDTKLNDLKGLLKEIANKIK
T1 sequence (Q8NER1 whole entry): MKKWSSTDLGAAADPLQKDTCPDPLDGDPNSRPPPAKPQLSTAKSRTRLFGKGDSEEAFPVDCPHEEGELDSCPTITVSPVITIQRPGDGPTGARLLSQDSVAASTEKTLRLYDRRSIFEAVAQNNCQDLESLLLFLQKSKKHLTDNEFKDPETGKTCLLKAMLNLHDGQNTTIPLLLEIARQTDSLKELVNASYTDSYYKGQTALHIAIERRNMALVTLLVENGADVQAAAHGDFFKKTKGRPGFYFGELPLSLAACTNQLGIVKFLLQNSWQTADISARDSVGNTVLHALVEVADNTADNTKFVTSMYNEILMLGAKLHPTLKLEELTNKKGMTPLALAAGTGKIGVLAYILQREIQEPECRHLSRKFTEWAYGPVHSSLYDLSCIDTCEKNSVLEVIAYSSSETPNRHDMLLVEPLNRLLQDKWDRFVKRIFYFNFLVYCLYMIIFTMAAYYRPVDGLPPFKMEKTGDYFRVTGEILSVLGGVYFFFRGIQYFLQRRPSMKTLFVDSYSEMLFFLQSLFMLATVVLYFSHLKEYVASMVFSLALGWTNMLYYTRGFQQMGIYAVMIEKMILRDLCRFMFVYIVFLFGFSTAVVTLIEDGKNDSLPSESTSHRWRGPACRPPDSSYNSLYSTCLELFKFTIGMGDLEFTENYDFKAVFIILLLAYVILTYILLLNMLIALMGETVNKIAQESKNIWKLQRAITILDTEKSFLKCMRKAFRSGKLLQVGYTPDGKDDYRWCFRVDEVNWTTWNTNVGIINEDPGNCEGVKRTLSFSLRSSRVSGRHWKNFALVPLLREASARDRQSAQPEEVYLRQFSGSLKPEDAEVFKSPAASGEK
Sequence of CYP2C19 (P33261 whole entry): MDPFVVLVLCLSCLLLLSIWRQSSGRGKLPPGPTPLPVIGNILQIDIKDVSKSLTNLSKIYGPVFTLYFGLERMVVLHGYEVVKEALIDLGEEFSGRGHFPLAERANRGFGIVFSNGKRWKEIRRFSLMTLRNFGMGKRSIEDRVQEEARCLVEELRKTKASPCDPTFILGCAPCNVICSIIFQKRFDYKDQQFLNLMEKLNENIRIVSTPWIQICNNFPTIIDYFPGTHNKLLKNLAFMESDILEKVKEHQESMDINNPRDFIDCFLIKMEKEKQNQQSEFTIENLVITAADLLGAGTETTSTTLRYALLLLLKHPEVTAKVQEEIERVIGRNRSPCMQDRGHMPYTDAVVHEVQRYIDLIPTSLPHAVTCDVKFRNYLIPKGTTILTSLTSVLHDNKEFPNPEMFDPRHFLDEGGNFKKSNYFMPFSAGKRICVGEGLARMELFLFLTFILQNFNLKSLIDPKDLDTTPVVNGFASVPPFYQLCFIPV
Sequence of hERG (Q12809 whole entry): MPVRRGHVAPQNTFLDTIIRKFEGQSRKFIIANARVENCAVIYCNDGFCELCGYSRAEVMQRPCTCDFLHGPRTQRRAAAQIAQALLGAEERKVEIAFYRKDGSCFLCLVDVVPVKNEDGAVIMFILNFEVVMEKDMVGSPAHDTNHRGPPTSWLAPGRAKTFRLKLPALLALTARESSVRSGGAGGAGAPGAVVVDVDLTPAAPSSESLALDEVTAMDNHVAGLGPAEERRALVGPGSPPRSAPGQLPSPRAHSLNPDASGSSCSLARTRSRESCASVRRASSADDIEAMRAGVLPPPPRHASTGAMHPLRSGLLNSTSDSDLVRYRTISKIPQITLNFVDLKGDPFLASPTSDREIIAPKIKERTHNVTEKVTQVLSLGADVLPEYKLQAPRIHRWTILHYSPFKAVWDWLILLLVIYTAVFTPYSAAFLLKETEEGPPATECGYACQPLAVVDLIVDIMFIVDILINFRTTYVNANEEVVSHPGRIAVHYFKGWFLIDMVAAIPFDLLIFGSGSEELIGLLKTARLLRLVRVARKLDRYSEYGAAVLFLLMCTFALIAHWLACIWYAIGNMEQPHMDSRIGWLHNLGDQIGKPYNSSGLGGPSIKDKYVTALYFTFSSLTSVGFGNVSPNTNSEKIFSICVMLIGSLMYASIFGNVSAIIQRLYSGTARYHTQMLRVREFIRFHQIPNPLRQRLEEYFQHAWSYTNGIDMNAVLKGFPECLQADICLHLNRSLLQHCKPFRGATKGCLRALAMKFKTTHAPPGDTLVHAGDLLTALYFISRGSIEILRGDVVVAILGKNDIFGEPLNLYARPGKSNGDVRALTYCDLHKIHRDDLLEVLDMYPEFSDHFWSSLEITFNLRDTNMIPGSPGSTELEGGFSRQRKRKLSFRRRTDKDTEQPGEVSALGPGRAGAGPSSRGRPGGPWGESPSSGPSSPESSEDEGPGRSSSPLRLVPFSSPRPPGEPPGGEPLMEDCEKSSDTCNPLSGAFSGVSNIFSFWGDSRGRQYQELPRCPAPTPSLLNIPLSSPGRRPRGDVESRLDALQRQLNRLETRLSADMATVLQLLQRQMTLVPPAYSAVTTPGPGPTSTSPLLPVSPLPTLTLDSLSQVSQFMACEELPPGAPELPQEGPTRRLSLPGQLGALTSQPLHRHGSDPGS

## Cl.Clc1c(OCCNCc2ccco2)ccc2ccccc12 [Compound 1, 2-[(1-chloronaphthalen-2-yl)oxy]-N-(furan-2-ylmethyl)ethanaminium chloride]
[1]
  time of inhibition of RBC, higher compared to vehicle group: about 300 sec
[1]; first 30 min
  reduction of Micturition Frequency (MF): about 36%
[2]
  effect on Amplitude of Micturition (AM): did not change AM
[2]; 3 x 100 μL containing 0.756 mg
  effect on rhythmic bladder contractions (RBC): completely abolished RBC
[2]; maximal volume infused 3 mL, no RBC occurrence
  threshold volume (TV) inducing RBC: > 3 mL
hTRPV1 channels; HEK293, 0.001 μM, 0.1 μM capsaicin = 100%, 5 μM ruthenium red = 0, read-out: normalized % inhibition TRPV1
  inhibition at 0.001 µM: -9.14%
hTRPV1 channels; HEK293, 0.01 μM, 0.1 μM capsaicin, read-out: normalized % inhibition TRPV1
  inhibition at 0.01 µM: 5.29%
hTRPV1 channels; HEK293, 0.1 μM, 0.1 μM capsaicin, read-out: normalized % inhibition TRPV1
  inhibition at 0.1 µM: 2.12%
hTRPV1 channels; HEK293, 1 μM, 0.1 μM capsaicin, read-out: normalized % inhibition TRPV1
  inhibition at 1 µM: 5.37%
hTRPV1 channels; HEK293, 10 μM, 0.1 μM capsaicin, read-out: normalized % inhibition TRPV1
  inhibition at 10 µM: 4.9%
hTRPV1 channels; all the assay concentrations
  inhibition of TRPV1 ion channel (in words): do not show any relevant inhibition
hepatocytes
  Metabolic stability hepatocytes (% remaining at 120 min @1 μM): 5.0%
CYP2C19
  inhibition at 10 µM: 55.3%
hERG
  hERG binding @10 μM: No effect
Plasma stability, human
  Plasma stability (% remaining) @10 μM: 96%
[3]
  fraction unbound at 10 μM: 0.02
Human TRPM8; [4]
  inhibition at 0.001 µM: -25.2%
  inhibition at 0.01 µM: 21.4%
  inhibition at 0.1 µM: 95.6%
  inhibition at 1 µM: 95.6%
  inhibition at 10 µM: 96.4%
Human TRPM8; read-out: IC50 (TRPM8)
  IC50: 70 nM
